This experiment has as its target BRAF V600E (Homo sapiens, UniProt P15056, V600E). Nature of the experiment: HiBiT cellular BRAF^V600E degradation assay. Conditions: A375.10 cells, 24 h; for DC50: concentration at which 50% of total cellular BRAF^V600E is degraded; for Emax: residual protein remaining in the cell, read-out: HiBit 24 h Emax. It counts as cell-based.

Chain of BRAF V600E (P15056 whole entry V600E): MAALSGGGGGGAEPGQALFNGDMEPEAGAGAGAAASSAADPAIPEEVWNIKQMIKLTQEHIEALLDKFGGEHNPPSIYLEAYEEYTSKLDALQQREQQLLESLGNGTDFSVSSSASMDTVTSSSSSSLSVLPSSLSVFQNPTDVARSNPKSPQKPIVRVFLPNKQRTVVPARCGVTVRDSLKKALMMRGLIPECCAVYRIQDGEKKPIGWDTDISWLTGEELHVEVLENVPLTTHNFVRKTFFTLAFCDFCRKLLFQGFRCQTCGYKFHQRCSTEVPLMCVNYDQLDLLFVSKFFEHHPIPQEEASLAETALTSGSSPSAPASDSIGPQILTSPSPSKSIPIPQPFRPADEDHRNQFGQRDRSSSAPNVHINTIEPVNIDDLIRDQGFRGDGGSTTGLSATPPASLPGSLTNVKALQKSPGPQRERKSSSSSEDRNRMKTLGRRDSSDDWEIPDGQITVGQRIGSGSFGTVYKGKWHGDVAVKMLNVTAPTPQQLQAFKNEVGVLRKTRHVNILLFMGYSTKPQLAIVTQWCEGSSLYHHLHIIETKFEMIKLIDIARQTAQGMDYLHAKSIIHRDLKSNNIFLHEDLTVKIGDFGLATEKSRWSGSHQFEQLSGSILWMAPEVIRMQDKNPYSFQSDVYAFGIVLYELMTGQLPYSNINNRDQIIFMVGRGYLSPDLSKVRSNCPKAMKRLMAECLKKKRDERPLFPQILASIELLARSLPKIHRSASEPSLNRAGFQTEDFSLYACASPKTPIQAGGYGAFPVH

Turning to `CCN(C)S(=O)(=O)Nc1ccc(F)c(Oc2ccc3ncn(-c4cnc(N5CCN(C(=O)CN6CCC(c7ccc(N[C@@H]8CCC(=O)NC8=O)cc7F)CC6)CC5)nc4)c(=O)c3c2O)c1C#N` [Example 137, 6-[2-cyano-3-[[ethyl(methyl)sulfamoyl]amino]-6-fluorophenoxy]-3-[2-[4-[2-[4-[4-[[(3R)-2,6-dioxopiperidin-3-yl]amino]-2-fluorophenyl]piperidin-1-yl]acetyl]piperazin-1-yl]pyrimidin-5-yl]-5-hydroxy-4-oxoquinazoline], the DC50 (usually the concentration at which degradation of the target reaches its halfway point) is 34.2 nM and the Emax (usually the size of the effect at its maximum, as opposed to the concentration needed) came to 25.1%.

As for `O=C1CC[C@H](Nc2ccc(C3CCN(CC(=O)N4CCN(c5ncc(-n6cnc7ccc(Oc8c(F)ccc(NS(=O)(=O)C9CCCC9)c8F)cc7c6=O)cn5)CC4)CC3)c(F)c2)C(=O)N1` [Example 138, N-[3-[3-[2-[4-[2-[4-[4-[[(3S)-2,6-dioxopiperidin-3-yl]amino]-2-fluorophenyl]piperidin-1-yl]acetyl]piperazin-1-yl]pyrimidin-5-yl]-4-oxoquinazolin-6-yl]oxy-2,4-difluorophenyl]cyclopentanesulfonamide], half-maximal degradation (DC50) was put at 17.2 nM and the Emax was 10.7%.

`CCN(C)S(=O)(=O)Nc1ccc(F)c(Oc2ccc3ncn(-c4cnc(N5CCN(C(=O)CN6CCC(c7ccc(N[C@@H]8CCC(=O)NC8=O)cc7F)CC6)CC5)nc4)c(=O)c3c2)c1F` [Example 139, 3-[2-[4-[2-[4-[4-[[(3R)-2,6-dioxopiperidin-3-yl]amino]-2-fluorophenyl]piperidin-1-yl]acetyl]piperazin-1-yl]pyrimidin-5-yl]-6-[3-[[ethyl(methyl)sulfamoyl]amino]-2,6-difluorophenoxy]-4-oxoquinazoline]: it took 41.2 nM to reach half-maximal degradation (DC50) and the Emax was 13.2%.

Take `CCN(C)S(=O)(=O)Nc1ccc(F)c(Oc2ccc3ncn(-c4cnc(N5CCN(C(=O)CN6CCC(c7ccc(N[C@H]8CCC(=O)NC8=O)cc7F)CC6)CC5)nc4)c(=O)c3c2)c1F` [Example 140, 3-[2-[4-[2-[4-[4-[[(3S)-2,6-dioxopiperidin-3-yl]amino]-2-fluorophenyl]piperidin-1-yl]acetyl]piperazin-1-yl]pyrimidin-5-yl]-6-[3-[[ethyl(methyl)sulfamoyl]amino]-2,6-difluorophenoxy]-4-oxoquinazoline]: it took 27.8 nM to reach half-maximal degradation (DC50) and the Emax turned out to be 12.3%.

As to `CCN(C)S(=O)(=O)Nc1ccc(F)c(C(=O)c2ccc3ncn(-c4cnc(N5CCN(C(=O)CN6CCC(c7ccc(N[C@@H]8CCC(=O)NC8=O)cc7F)CC6)CC5)nc4)c(=O)c3c2)c1F` [Example 141, 3-[2-[4-[2-[4-[4-[[(3R)-2,6-dioxopiperidin-3-yl]amino]-2-fluorophenyl]piperidin-1-yl]acetyl]piperazin-1-yl]pyrimidin-5-yl]-6-[3-[[ethyl(methyl)sulfamoyl]amino]-2,6-difluorobenzoyl]-4-oxoquinazoline], the DC50 came out at 55 nM and the Emax is 26.3%.

For `CCN(C)S(=O)(=O)Nc1ccc(F)c(Oc2ccc3ncn(CCC4CCN(C(=O)CN5CCC(c6ccc7c(C8CCC(=O)NC8=O)nn(C)c7c6)CC5)CC4)c(=O)c3c2)c1C#N` (stereo not shown) [Example 144, 6-[2-cyano-3-[[ethyl(methyl)sulfamoyl]amino]-6-fluorophenoxy]-3-[2-[1-[2-[4-[3-(2,6-dioxopiperidin-3-yl)-1-methylindazol-6-yl]piperidin-1-yl]acetyl]piperidin-4-yl]ethyl]-4-oxoquinazoline], the DC50 was determined as 28.4 nM and the Emax is 16.7%.

For `CCN(C)S(=O)(=O)Nc1ccc(F)c(Oc2ccc3ncn(CCCC4CCN(C(=O)CN5CCC(c6ccc7c(C8CCC(=O)NC8=O)nn(C)c7c6)CC5)CC4)c(=O)c3c2)c1C#N` (stereo not shown) [Example 145, 6-[2-cyano-3-[[ethyl(methyl)sulfamoyl]amino]-6-fluorophenoxy]-3-[3-[1-[2-[4-[3-(2,6-dioxopiperidin-3-yl)-1-methylindazol-6-yl]piperidin-1-yl]acetyl]piperidin-4-yl]propyl]-4-oxoquinazoline], it took 10.6 nM to reach half-maximal degradation (DC50) and the Emax stood at 15%.

As to `CCN(C)S(=O)(=O)Nc1ccc(F)c(Oc2ccc3ncn(-c4cnn(C5CCN(C(=O)CN6CCC(c7ccc8c(C9CCC(=O)NC9=O)nn(C)c8c7)CC6)CC5)c4)c(=O)c3c2)c1C#N` (stereo not shown) [Example 146, 6-[2-cyano-3-[[ethyl(methyl)sulfamoyl]amino]-6-fluorophenoxy]-3-[1-[1-[2-[4-[3-(2,6-dioxopiperidin-3-yl)-1-methylindazol-6-yl]piperidin-1-yl]acetyl]piperidin-4-yl]pyrazol-4-yl]-4-oxoquinazoline], it took 22.2 nM to reach half-maximal degradation (DC50) and the Emax came to 16%.

As for `CCN(C)S(=O)(=O)Nc1ccc(F)c(Oc2ccc3ncn(C4CC5(CCN(C(=O)CN6CCC(c7ccc8c(N9CCC(=O)NC9=O)nn(C)c8c7)CC6)CC5)C4)c(=O)c3c2)c1C#N` [Example 147, 6-[2-cyano-3-[[ethyl(methyl)sulfamoyl]amino]-6-fluorophenoxy]-3-[7-[2-[4-[3-(2,4-dioxo-1,3-diazinan-1-yl)-1-methylindazol-6-yl]piperidin-1-yl]acetyl]-7-azaspiro[3.5]nonan-2-yl]-4-oxoquinazoline], the DC50 was found to be 26.9 nM and the Emax is 9.49%.

As for `CCN(C)S(=O)(=O)Nc1ccc(F)c(Oc2ccc3ncn(C4COC5(CCN(C(=O)CN6CCC(c7ccc8c(N9CCC(=O)NC9=O)nn(C)c8c7)CC6)CC5)C4)c(=O)c3c2)c1C#N` (stereo not shown) [Example 148, 3-[6-[2-cyano-3-[[ethyl(methyl)sulfamoyl]amino]-6-fluorophenoxy]-4-oxoquinazolin-3-yl]-8-[2-[4-[3-(2,4-dioxo-1,3-diazinan-1-yl)-1-methylindazol-6-yl]piperidin-1-yl]acetyl]-1-oxa-8-azaspiro[4.5]decane], the DC50 was determined as 18.4 nM and the Emax was determined as 8.7%.

Consider `CCN(C)S(=O)(=O)Nc1ccc(F)c(Oc2ccc3ncn(C4CC5(CCN(C(=O)CN6CCC(c7ccc8c(C9CCC(=O)NC9=O)nn(C)c8c7)CC6)CC5)C4)c(=O)c3c2)c1C#N` (stereo not shown) [Example 149, 6-[2-cyano-3-[[ethyl(methyl)sulfamoyl]amino]-6-fluorophenoxy]-3-[7-[2-[4-[3-(2,6-dioxopiperidin-3-yl)-1-methylindazol-6-yl]piperidin-1-yl]acetyl]-7-azaspiro[3.5]nonan-2-yl]-4-oxoquinazoline], for which the 50% degradation concentration (DC50) was determined as 10.7 nM and the Emax was 11.5%.

For the compound `CCN(C)S(=O)(=O)Nc1ccc(F)c(Oc2ccc3ncn([C@H]4COC5(CCN(C(=O)CC6CCN(c7ccc8c(C9CCC(=O)NC9=O)nn(C)c8c7)CC6)CC5)C4)c(=O)c3c2)c1C#N` (stereo partly drawn) [Example 151, (3R)-3-[6-[2-cyano-3-[[ethyl(methyl)sulfamoyl]amino]-6-fluorophenoxy]-4-oxoquinazolin-3-yl]-8-[2-[1-[3-(2,6-dioxopiperidin-3-yl)-1-methylindazol-6-yl]piperidin-4-yl]acetyl]-1-oxa-8-azaspiro[4.5]decane], the DC50 worked out at 18.7 nM and the Emax came to 24.6%.

With `CCN(C)S(=O)(=O)Nc1ccc(F)c(Oc2ccc3ncn([C@H]4COC5(CCN(C(=O)CC6(O)CCN(c7ccc8c(C9CCC(=O)NC9=O)nn(C)c8c7)CC6)CC5)C4)c(=O)c3c2)c1C#N` (stereo partly drawn) [Example 152, (3R)-3-[6-[2-cyano-3-[[ethyl(methyl)sulfamoyl]amino]-6-fluorophenoxy]-4-oxoquinazolin-3-yl]-8-[2-[1-[3-(2,6-dioxopiperidin-3-yl)-1-methylindazol-6-yl]-4-hydroxypiperidin-4-yl]acetyl]-1-oxa-8-azaspiro[4.5]decane], half-maximal degradation (DC50) was put at 27.2 nM and the Emax turned out to be 25.2%.

For `CCN(C)S(=O)(=O)Nc1ccc(F)c(Oc2ccc3ncn([C@H]4CCC5(CCN(C(=O)CN6CCC(c7ccc8c(N9CCC(=O)NC9=O)nn(C)c8c7)CC6)CC5)C4)c(=O)c3c2)c1C#N` [Example 154, 6-[2-cyano-3-[[ethyl(methyl)sulfamoyl]amino]-6-fluorophenoxy]-3-[(3S)-8-[2-[4-[3-(2,4-dioxo-1,3-diazinan-1-yl)-1-methylindazol-6-yl]piperidin-1-yl]acetyl]-8-azaspiro[4.5]decan-3-yl]-4-oxoquinazoline], the DC50 was 24.6 nM and the Emax amounted to 11.1%.

For the compound `CCN(C)S(=O)(=O)Nc1ccc(F)c(Oc2ccc3ncn(C4CCC5(CC4)CCN(C(=O)CN4CCC(c6ccc7c(N8CCC(=O)NC8=O)nn(C)c7c6)CC4)CC5)c(=O)c3c2)c1C#N` [Example 155, 9-[6-[2-cyano-3-[[ethyl(methyl)sulfamoyl]amino]-6-fluorophenoxy]-4-oxoquinazolin-3-yl]-3-[2-[4-[3-(2,4-dioxo-1,3-diazinan-1-yl)-1-methylindazol-6-yl]piperidin-1-yl]acetyl]-3-azaspiro[5.5]undecane], the DC50 turned out to be 23.2 nM and the Emax is 9.75%.

In the case of `CCN(C)S(=O)(=O)Nc1ccc(F)c(Oc2ccc3ncn(C4CCC5(CC4)CCN(C(=O)CN4CCC(c6ccc7c(C8CCC(=O)NC8=O)nn(C)c7c6)CC4)CC5)c(=O)c3c2)c1C#N` (stereo not shown) [Example 156, 9-[6-[2-cyano-3-[[ethyl(methyl)sulfamoyl]amino]-6-fluorophenoxy]-4-oxoquinazolin-3-yl]-3-[2-[4-[3-(2,6-dioxopiperidin-3-yl)-1-methylindazol-6-yl]piperidin-1-yl]acetyl]-3-azaspiro[5.5]undecane], the DC50 came to 26.6 nM and the Emax stood at 21%.

Turning to `CCN(C)S(=O)(=O)Nc1ccc(F)c(Oc2ccc3ncn(C4CCC5(CC4)CCN(C(=O)CC4(O)CCN(c6cc7c(cc6F)c(N6CCC(=O)NC6=O)nn7C)CC4)CC5)c(=O)c3c2)c1C#N` [Example 158, 9-[6-[2-cyano-3-[[ethyl(methyl)sulfamoyl]amino]-6-fluorophenoxy]-4-oxoquinazolin-3-yl]-3-[2-[1-[3-(2,4-dioxo-1,3-diazinan-1-yl)-5-fluoro-1-methylindazol-6-yl]-4-hydroxypiperidin-4-yl]acetyl]-3-azaspiro[5.5]undecane], the DC50 was found to be 25 nM and the Emax is 30%.
